In patent publication EP4635500A1, “THERAPEUTIC AGENT FOR BACTERIAL INFECTION” (Sumitomo Pharma Co., Ltd., priority 2022, dated 2024):
Values after ≈ are worked out from the molar mass of the structure shown. Where two headings read alike, the source gives them in different places.

Key:
[1] = tested on: 53 CRE and CPE strains; test: MICrange, MIC50, MIC80, MIC90 for 53 bacterial isolates (Example 5, Table 5); type: cell-based; conditions: 53 bacterial isolates
[2] = tested on: Enterobacterales; test: MIC, broth microdilution, CDC/FDA Antibiotic Resistance Isolate Bank (Example 7, Tables 8, 11, 12); type: cell-based; conditions: for MIC: read-out: MIC

Question: What does the source list for `CO/N=C(\C(=O)N[C@@H]1C(=O)N2C(C(=O)[O-])=C(C[n+]3ccn4ncccc43)CS[C@H]12)c1nsc(N)n1` [Cefozopran, cefozopran]?
Answer: MIC50 ([1]; read-out: MIC50): 32 µg/mL (≈ 62.1 µM); MIC80 ([1]; read-out: MIC80): > 64 µg/mL; MIC90 ([1]; read-out: MIC90): > 64 µg/mL; MIC50 ([2]; 154 strains of Enterobacterales, read-out: MIC50): 64 µg/mL (≈ 124 µM); MIC80 ([2]; 154 strains of Enterobacterales, read-out: MIC80): > 64 µg/mL; MIC90 ([2]; 154 strains of Enterobacterales, read-out: MIC90): > 64 µg/mL; MIC ([2]; Citrobacter freundii, KUB No. 5654, AR Bank # 157): > 64 µg/mL; MIC ([2]; Enterobacter cloacae, Enterobacter cloacae KUB No. 5792, AR Bank #448): > 64 µg/mL; MIC ([2]; Enterobacter cloacae, Enterobacter cloacae KUB No. 5807, AR Bank #501): > 64 µg/mL; MIC ([2]; Enterobacter cloacae, Enterobacter cloacae KUB No. 5808, AR Bank #502): > 64 µg/mL; MIC ([2]; Enterobacter cloacae, Enterobacter cloacae complex, KUB No. 5661, AR Bank # 164): 1 µg/mL (≈ 1.94 µM); MIC ([2]; Enterobacter cloacae, Enterobacter cloacae group, KUB No. 5629, AR Bank # 132): 0.25 µg/mL (≈ 0.485 µM); MIC ([2]; Enterobacter cloacae, KUB No. 5529, AR Bank# 32): 4 µg/mL (≈ 7.76 µM); MIC ([2]; Enterobacter cloacae, KUB No. 5535, AR Bank# 38): > 64 µg/mL; MIC ([2]; Enterobacter cloacae, KUB No. 5547, AR Bank# 50): 8 µg/mL (≈ 15.5 µM); MIC ([2]; Enterobacter cloacae, KUB No. 5550, AR Bank# 53): > 64 µg/mL; MIC ([2]; Enterobacter cloacae, KUB No. 5557, AR Bank# 60): 2 µg/mL (≈ 3.88 µM); MIC ([2]; Enterobacter cloacae, KUB No. 5562, AR Bank # 65): 16 µg/mL (≈ 31 µM); MIC ([2]; Enterobacter cloacae, KUB No. 5569, AR Bank # 72): 16 µg/mL (≈ 31 µM); MIC ([2]; Enterobacter cloacae, KUB No. 5570, AR Bank # 73): 0.25 µg/mL (≈ 0.485 µM); MIC ([2]; Enterobacter cloacae, KUB No. 5590, AR Bank # 93): 32 µg/mL (≈ 62.1 µM); MIC ([2]; Enterobacter cloacae, KUB No. 5660, AR Bank # 163): > 64 µg/mL; MIC ([2]; Enterobacter cloacae, KUB No. 5761, AR Bank # 365): 16 µg/mL (≈ 31 µM); MIC ([2]; Enterobacter cloacae, KUB No. 5762, AR Bank # 366): 16 µg/mL (≈ 31 µM); MIC ([2]; Enterobacter cloacae, KUB No. 5763, AR Bank # 367): 4 µg/mL (≈ 7.76 µM); MIC ([2]; Enterobacter cloacae, KUB No. 5778, AR Bank # 432): > 64 µg/mL; MIC ([2]; Enterobacter cloaccae, KUB No. 5651, AR Bank # 154): > 64 µg/mL; MIC ([2]; Enterobacter clooreae, KUB No. 5633, AR Bank # 136): > 64 µg/mL; MIC ([2]; Escherichia coli, Escherichia coli KUB No. 5783, AR Bank #437): > 64 µg/mL; MIC ([2]; Escherichia coli, Escherichia coli KUB No. 5794, AR Bank #450): > 64 µg/mL; MIC ([2]; Escherichia coli, Escherichia coli KUB No. 5795, AR Bank #451): 64 µg/mL (≈ 124 µM); MIC ([2]; Escherichia coli, Escherichia coli KUB No. 5796, AR Bank #452): > 64 µg/mL; MIC ([2]; Escherichia coli, Escherichia coli KUB No. 5803, AR Bank #861): > 64 µg/mL; MIC ([2]; Escherichia coli, KUB No. 5558, AR Bank # 61): 16 µg/mL (≈ 31 µM); MIC ([2]; Escherichia coli, KUB No. 5564, AR Bank # 67): 0.25 µg/mL (≈ 0.485 µM); MIC ([2]; Escherichia coli, KUB No. 5566, AR Bank # 69): > 64 µg/mL; MIC ([2]; Escherichia coli, KUB No. 5574, AR Bank # 77): 0.06 µg/mL (≈ 0.116 µM); MIC ([2]; Escherichia coli, KUB No. 5578, AR Bank # 81): 0.5 µg/mL (≈ 0.97 µM); MIC ([2]; Escherichia coli, KUB No. 5581, AR Bank # 84): 0.25 µg/mL (≈ 0.485 µM); MIC ([2]; Escherichia coli, KUB No. 5582, AR Bank # 85): 8 µg/mL (≈ 15.5 µM); MIC ([2]; Escherichia coli, KUB No. 5583, AR Bank # 86): > 64 µg/mL; MIC ([2]; Escherichia coli, KUB No. 5586, AR Bank # 89): 0.5 µg/mL (≈ 0.97 µM); MIC ([2]; Escherichia coli, KUB No. 5601, AR Bank # 104): 32 µg/mL (≈ 62.1 µM); MIC ([2]; Escherichia coli, KUB No. 5611, AR Bank # 114): 16 µg/mL (≈ 31 µM); MIC ([2]; Escherichia coli, KUB No. 5615, AR Bank # 118): > 64 µg/mL; MIC ([2]; Escherichia coli, KUB No. 5616, AR Bank # 119): > 64 µg/mL; MIC ([2]; Escherichia coli, KUB No. 5625, AR Bank # 128): > 64 µg/mL; MIC ([2]; Escherichia coli, KUB No. 5634, AR Bank # 137): > 64 µg/mL; MIC ([2]; Escherichia coli, KUB No. 5646, AR Bank # 149): > 64 µg/mL; MIC ([2]; Escherichia coli, KUB No. 5647, AR Bank # 150): > 64 µg/mL; MIC ([2]; Escherichia coli, KUB No. 5648, AR Bank # 151): > 64 µg/mL; MIC ([2]; Escherichia coli, KUB No. 5659, AR Bank # 162): > 64 µg/mL; MIC ([2]; Escherichia coli, KUB No. 5764, AR Bank # 368): 0.06 µg/mL (≈ 0.116 µM); MIC ([2]; Escherichia coli, KUB No. 5765, AR Bank # 369): 32 µg/mL (≈ 62.1 µM); MIC ([2]; Escherichia coli, KUB No. 5766, AR Bank # 370): 64 µg/mL (≈ 124 µM); MIC ([2]; Escherichia coli, KUB No. 5767, AR Bank # 371): 32 µg/mL (≈ 62.1 µM); MIC ([2]; Escherichia coli, KUB No. 5768, AR Bank # 372): > 64 µg/mL; MIC ([2]; Escherichia coli, KUB No. 5769, AR Bank # 373): 0.5 µg/mL (≈ 0.97 µM); MIC ([2]; Escherichia coli, KUB No. 5770, AR Bank # 374): 1 µg/mL (≈ 1.94 µM); MIC ([2]; Escherichia coli, KUB No. 5774, AR Bank # 378): ≤ 0.03 µg/mL; MIC ([2]; Escherichia coli, KUB No. 5779, AR Bank # 433): 16 µg/mL (≈ 31 µM); MIC ([2]; Escherichia coli, KUB No. 5780, AR Bank # 434): 64 µg/mL (≈ 124 µM); MIC ([2]; Escherichia coli, KUB No. 5781, AR Bank # 435): > 64 µg/mL; MIC ([2]; Escherichia, KUB No. 57, AR Bank # 436 (row cut off)): 1 µg/mL (≈ 1.94 µM); MIC ([2]; Klebsiella aerogenes, Enterobacter aerogenes, KUB No. 5559, AR Bank # 62): 0.5 µg/mL (≈ 0.97 µM); MIC ([2]; Klebsiella aerogenes, Enterobacter aerogenes, KUB No. 5571, AR Bank # 74): 0.5 µg/mL (≈ 0.97 µM); MIC ([2]; Klebsiella aerogenes, Enterobacter aerogenes, KUB No. 5658, AR Bank # 161): 32 µg/mL (≈ 62.1 µM); MIC ([2]; Klebsiella aerogenes, Enterobacter aerogenes, KUB No. 5777, AR Bank # 431): 4 µg/mL (≈ 7.76 µM); MIC ([2]; Klebsiella oxytoca, KUB No. 5568, AR Bank # 71): > 64 µg/mL; MIC ([2]; Klebsiella oxytoca, KUB No. 5644, AR Bank # 147): 1 µg/mL (≈ 1.94 µM); MIC ([2]; Klebsiella oxytoca, KUB No. 5771, AR Bank # 375): 0.5 µg/mL (≈ 0.97 µM); MIC ([2]; Klebsiella oxytoca, KUB No. 5776, AR Bank # 380): 32 µg/mL (≈ 62.1 µM); MIC ([2]; Klebsiella ozaenae, KUB No. 5548, AR Bank# 51): > 64 µg/mL; MIC ([2]; Klebsiella ozaenae, KUB No. 5593, AR Bank # 96): > 64 µg/mL; MIC ([2]; Klebsiella pnemnonine, KUB No. 5758, AR Bank # 362): 32 µg/mL (≈ 62.1 µM); MIC ([2]; Klebsiella pneumoniae, KUB No. 55, AR Bank# 47): > 64 µg/mL; MIC ([2]; Klebsiella pneumoniae, KUB No. 5531, AR Bank# 34): 4 µg/mL (≈ 7.76 µM); MIC ([2]; Klebsiella pneumoniae, KUB No. 5536, AR Bank# 39): > 64 µg/mL; MIC ([2]; Klebsiella pneumoniae, KUB No. 5537, AR Bank# 40): > 64 µg/mL
